Assay [1] deals with T1, ABL (Homo sapiens, UniProt P00519).
T1 construct: purchased Promega
Briefly: Tyrosine kinase assay (Kinase Selectivity System TK-2, ADP-Glo). The class given is biochemical. The conditions noted are these: 1 h incubation, mean ± SD of four experiments.

Assay [2] concerns the target T2, Lck (Homo sapiens, UniProt P06239).
T2 construct: purchased Promega
Described as above. The assay is classed as biochemical. The conditions noted are these: 1 h incubation, mean ± SD of four experiments.

Assay [3] deals with T3, Fyn A (Homo sapiens, UniProt P06241).
T3 construct: purchased Promega
T3 sequence (P06241 whole entry): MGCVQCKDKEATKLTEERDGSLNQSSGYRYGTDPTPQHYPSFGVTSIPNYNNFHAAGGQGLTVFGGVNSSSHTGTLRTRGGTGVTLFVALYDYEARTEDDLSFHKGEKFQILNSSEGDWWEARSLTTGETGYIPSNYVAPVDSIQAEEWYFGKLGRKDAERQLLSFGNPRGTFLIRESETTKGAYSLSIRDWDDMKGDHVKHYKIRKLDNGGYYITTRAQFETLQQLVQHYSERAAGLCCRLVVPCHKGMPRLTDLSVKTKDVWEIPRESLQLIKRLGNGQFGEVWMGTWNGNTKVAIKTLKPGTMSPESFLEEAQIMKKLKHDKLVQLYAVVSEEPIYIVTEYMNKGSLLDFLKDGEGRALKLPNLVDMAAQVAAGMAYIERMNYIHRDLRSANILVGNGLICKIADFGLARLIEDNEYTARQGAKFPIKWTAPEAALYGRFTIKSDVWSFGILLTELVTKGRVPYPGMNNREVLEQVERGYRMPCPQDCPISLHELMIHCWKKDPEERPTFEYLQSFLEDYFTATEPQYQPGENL
The description is as above. The settings on record: 1 h incubation, mean ± SD of four experiments. The assay is classed as biochemical. An excerpt:
All newly synthesised derivatives were screened for their inhibitory potential towards eight non-receptor tyrosine kinases, such as ABL, BTK, BRK and Src family kinases, such as CSK, Lyn, Lck, Fyn and Src. […] To facilitate the analysis of the structure and enzymatic activity, all tested compounds were divided into four subgroups based on the main structural scaffolds (the general structure of each group is shown in the second column of Table 1). Series A, B, and C were subdivided according to the S^4-aryl substituent, while D represents the different styryl groups at the C^2-quinazoline position.
Herein, we used a kinase assay that contained fully expressed kinases with their regulatory domains, which are responsible for autoinhibition. The proteins are present in their unphosphorylated form and the procedure required supplementation with ATP. Importantly, autophosphorylation of ABL is dependent on […] concentration of the protein. Thus, our experimental conditions reflect the cellular process to be simulated. The luminescence signal detected after one hour of incubation with a peptide substrate was a measure of inhibition. Under these conditions, the question of whether the inhibitors tested bind to the ortho or allosteric site of the protein could be answered. […] To test this hypothesis, further molecular docking experiments were performed to more precisely determine the binding of the tested compounds to the ABL kinase.
To determine the inhibition of non-receptor tyrosine kinases, assays were performed using the kinase selectivity system TK-2 and the ADP-Glo Kinase Assay (both from Promega). The protocol was previously developed by our group and described in reports[12]^,[36]. Experiments were performed at least four times. Data are expressed as percentage of tyrosine kinase inhibitory activity after treatment with the derivatives tested.

The target of assay [4] is T4, CSK (Homo sapiens, UniProt P41240).
T4 construct: purchased Promega
T4 sequence (P41240 whole entry): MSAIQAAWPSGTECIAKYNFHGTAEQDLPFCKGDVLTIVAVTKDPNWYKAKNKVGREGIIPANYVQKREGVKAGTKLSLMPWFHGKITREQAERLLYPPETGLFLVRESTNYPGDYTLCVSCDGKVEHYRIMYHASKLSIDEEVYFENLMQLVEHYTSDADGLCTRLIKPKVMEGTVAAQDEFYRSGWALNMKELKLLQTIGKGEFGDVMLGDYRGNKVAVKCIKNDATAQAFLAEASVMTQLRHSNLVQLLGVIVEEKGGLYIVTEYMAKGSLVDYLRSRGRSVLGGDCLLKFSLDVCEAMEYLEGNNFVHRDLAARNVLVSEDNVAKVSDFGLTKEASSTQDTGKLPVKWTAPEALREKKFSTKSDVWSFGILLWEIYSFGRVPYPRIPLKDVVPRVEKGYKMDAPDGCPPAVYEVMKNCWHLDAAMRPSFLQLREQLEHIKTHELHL
The assay is described as above. The assay is classed as biochemical. The settings on record: 1 h incubation, mean ± SD of four experiments.

In assay [5] the test system is K562. Briefly: Cytotoxicity studies (MTS), antiproliferative activity. The settings on record: Homo sapiens, K562; 72 h, MTS. The class given is cell-based, human. An excerpt:
(§1) In contrast, the other cell lines studied represent common cancers found in the human population. Nevertheless, these cell lines are characterised by a different landscape of kinase expression, as reported in[36]. In chronic leukaemia cells, an aberration of the Philadelphia chromosome is common in which a fragment of chromosome 9 is displaced to chromosome 22, leading to the formation of the oncogenic protein BCR-ABL. The altered structure of the protein leads to abnormal activity that promotes excessive growth and differentiation of cells even in the absence of growth factors, as well as inhibition of apoptosis and formation of metastases. Moreover, the status of the TP53 gene in leukaemia is not insignificant. Mutations of the TP53 gene occur in more than 50% of all cancers, leading to increased metastasis and an overall poor prognosis[38]^,[39]. The p53 protein encoded by this gene plays a pivotal role in controlling cell division or cell fate when damage is detected. […] Therefore, interaction between the signalling network of the BCR-ABL pathway and p53 often results in an impairment of p53 function and survival[43]^,[44]. […] Selectivity studies were performed on normal human fibroblast – NHDF cell line.
(§2) M. Rusin from the Maria Sklodowska-Curie Memorial Cancer Centre and Institute of Oncology in Gliwice, Poland. […] G. Kramer-Marek from the Institute of Cancer Research in London, United Kingdom. The human suspension chronic myeloids leukaemia cell line K562 and the pancreatic ductal adenocarcinoma cell line PANC-1 were purchased from Merck. The normal human dermal fibroblasts cell line NHDF were obtained from PromoCell. All adherent cancer cell lines were cultured in Dulbecco’s Modified Eagle’s medium (DMEM) supplemented with 10% heat-inactivated foetal bovine serum – FBS (all from Merck). […] Each complete medium contained a mixture of two antibiotics - penicillin and streptomycin (1% v/v; Gibco). Cell lines were cultured at 37 °C with 5% CO2 humidified atmosphere.
(§3) The assay was carried out after 72 h of incubation with different concentrations of the tested compounds. Then DMEM without phenol red was added to each well with CellTiter 96®AQueous One Solution-MTS (Promega) solution and incubated for 1 h or 3 h (PANC-1) at 37 °C. The optical densities of the samples were measured at 490 nm using a multi-plate reader (Synergy 4, BioTek). […] Each compound was tested in triplicate in a single experiment and each experiment was performed three or four times.

Assay [6] relates to HCT 116 p53+/+. The assay is described as above. The assay is classed as cell-based, human. The settings on record: Homo sapiens, HCT-116; 72 h, MTS.
Description: as §1, §2, §3

Assay [7] relates to PANC-1. Described as above. The assay is classed as cell-based, human. The settings on record: Homo sapiens, PANC-1; 72 h, MTS.
Description: as §1, §2, §3

Assay [8] relates to U-251. The description is as above. The class given is cell-based, human. The settings on record: Homo sapiens, U-251; 72 h, MTS.
Description: as §1, §2, §3

For assay [9], the system named is MCF-7. The assay is described as above. The conditions noted are these: Homo sapiens, MCF7; 72 h, MTS. The assay is classed as cell-based, human.
Description: as §1, §2, §3

Assay [10] addresses T5, Src (Homo sapiens, UniProt P12931).
T5 construct: purchased Promega
As to the kind of experiment: Tyrosine kinase assay (Kinase Selectivity System TK-2, ADP-Glo). The assay is classed as biochemical. The settings on record: 1 h incubation, mean ± SD of four experiments.

Assay [11] has as its target T6, Lyn B (Homo sapiens, UniProt P07948).
T6 construct: purchased Promega
Described as above. The class given is biochemical. The settings on record: 1 h incubation, mean ± SD of four experiments.

Assay [12] has as its target T7, BRK (Homo sapiens, UniProt Q13882).
T7 construct: purchased Promega
The description is as above. The assay is classed as biochemical. The conditions noted are these: 1 h incubation, mean ± SD of four experiments.

For assay [13], the target named is T8, BTK (Homo sapiens, UniProt Q06187).
T8 construct: purchased Promega
T8 sequence (Q06187 whole entry): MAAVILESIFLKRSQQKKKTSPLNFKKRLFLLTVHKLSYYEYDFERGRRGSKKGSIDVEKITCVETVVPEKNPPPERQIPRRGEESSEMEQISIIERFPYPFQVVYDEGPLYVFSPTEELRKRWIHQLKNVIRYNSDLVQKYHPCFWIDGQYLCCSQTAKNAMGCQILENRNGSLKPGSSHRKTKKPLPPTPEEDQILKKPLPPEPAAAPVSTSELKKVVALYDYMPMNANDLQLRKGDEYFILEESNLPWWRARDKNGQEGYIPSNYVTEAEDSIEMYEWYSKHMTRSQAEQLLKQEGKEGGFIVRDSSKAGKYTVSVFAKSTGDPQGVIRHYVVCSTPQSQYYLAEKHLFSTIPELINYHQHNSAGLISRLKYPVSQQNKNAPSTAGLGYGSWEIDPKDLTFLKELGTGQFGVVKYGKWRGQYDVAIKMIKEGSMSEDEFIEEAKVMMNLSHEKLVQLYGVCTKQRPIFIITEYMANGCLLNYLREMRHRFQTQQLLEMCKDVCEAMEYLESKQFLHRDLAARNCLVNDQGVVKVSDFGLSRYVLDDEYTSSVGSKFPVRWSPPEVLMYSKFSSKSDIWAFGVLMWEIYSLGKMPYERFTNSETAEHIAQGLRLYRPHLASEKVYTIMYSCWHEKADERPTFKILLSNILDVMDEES
Described as above. The settings on record: 1 h incubation, mean ± SD of four experiments. The class given is biochemical.

Assay [14] concerns HCT 116 p53−/−. Briefly: Cytotoxicity studies (MTS), antiproliferative activity. The conditions noted are these: Homo sapiens, HCT-116; 72 h, MTS. The assay is classed as cell-based, human.
Description: as §1, §2, §3

In assay [15] the test system is A549. The description is as above. The assay is classed as cell-based, human. The conditions noted are these: Homo sapiens, A549; 72 h, MTS.
Description: as §1, §2, §3

Where only a bound is given, the exact number is not on record here.

T7 sequence (Q13882 whole entry): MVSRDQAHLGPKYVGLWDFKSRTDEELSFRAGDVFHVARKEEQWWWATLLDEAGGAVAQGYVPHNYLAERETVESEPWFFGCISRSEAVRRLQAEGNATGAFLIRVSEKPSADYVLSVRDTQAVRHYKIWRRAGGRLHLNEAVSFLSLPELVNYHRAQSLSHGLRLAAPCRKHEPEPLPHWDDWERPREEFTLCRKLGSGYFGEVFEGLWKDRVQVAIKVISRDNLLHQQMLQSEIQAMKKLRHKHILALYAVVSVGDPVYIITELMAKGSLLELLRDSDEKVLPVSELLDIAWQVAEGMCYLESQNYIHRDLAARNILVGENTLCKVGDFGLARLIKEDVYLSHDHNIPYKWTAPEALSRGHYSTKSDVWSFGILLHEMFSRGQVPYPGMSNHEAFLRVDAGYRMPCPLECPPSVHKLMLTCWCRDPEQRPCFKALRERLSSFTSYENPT
T5 sequence (P12931 whole entry): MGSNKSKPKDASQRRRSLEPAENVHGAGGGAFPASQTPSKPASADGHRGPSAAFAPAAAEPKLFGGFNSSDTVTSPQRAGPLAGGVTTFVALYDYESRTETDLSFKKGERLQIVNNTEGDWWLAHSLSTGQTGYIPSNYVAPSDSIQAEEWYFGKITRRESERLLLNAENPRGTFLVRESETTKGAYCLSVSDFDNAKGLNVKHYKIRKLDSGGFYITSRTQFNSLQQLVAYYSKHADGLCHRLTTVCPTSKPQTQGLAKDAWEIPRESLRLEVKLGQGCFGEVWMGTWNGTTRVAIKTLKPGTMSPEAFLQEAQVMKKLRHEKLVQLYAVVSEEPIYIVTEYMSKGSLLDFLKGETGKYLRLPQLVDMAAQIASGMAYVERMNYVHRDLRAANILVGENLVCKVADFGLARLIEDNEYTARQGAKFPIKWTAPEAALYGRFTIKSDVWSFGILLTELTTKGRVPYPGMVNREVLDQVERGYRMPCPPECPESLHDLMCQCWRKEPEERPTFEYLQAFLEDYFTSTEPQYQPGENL
T6 sequence (P07948 1-491 isoform P07948-2): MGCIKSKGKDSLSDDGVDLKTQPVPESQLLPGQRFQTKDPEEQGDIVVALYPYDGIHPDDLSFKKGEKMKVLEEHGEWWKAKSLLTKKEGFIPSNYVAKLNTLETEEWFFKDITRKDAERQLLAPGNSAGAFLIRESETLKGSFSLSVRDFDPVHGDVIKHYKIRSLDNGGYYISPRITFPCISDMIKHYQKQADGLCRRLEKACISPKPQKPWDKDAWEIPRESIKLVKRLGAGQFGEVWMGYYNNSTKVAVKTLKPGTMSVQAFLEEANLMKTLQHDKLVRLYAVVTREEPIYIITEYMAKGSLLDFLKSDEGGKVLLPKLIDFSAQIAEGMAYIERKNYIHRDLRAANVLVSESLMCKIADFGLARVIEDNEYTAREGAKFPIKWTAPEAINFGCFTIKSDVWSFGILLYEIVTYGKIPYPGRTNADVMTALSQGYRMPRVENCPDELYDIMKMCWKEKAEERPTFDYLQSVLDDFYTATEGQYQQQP
T1 sequence (P00519 whole entry): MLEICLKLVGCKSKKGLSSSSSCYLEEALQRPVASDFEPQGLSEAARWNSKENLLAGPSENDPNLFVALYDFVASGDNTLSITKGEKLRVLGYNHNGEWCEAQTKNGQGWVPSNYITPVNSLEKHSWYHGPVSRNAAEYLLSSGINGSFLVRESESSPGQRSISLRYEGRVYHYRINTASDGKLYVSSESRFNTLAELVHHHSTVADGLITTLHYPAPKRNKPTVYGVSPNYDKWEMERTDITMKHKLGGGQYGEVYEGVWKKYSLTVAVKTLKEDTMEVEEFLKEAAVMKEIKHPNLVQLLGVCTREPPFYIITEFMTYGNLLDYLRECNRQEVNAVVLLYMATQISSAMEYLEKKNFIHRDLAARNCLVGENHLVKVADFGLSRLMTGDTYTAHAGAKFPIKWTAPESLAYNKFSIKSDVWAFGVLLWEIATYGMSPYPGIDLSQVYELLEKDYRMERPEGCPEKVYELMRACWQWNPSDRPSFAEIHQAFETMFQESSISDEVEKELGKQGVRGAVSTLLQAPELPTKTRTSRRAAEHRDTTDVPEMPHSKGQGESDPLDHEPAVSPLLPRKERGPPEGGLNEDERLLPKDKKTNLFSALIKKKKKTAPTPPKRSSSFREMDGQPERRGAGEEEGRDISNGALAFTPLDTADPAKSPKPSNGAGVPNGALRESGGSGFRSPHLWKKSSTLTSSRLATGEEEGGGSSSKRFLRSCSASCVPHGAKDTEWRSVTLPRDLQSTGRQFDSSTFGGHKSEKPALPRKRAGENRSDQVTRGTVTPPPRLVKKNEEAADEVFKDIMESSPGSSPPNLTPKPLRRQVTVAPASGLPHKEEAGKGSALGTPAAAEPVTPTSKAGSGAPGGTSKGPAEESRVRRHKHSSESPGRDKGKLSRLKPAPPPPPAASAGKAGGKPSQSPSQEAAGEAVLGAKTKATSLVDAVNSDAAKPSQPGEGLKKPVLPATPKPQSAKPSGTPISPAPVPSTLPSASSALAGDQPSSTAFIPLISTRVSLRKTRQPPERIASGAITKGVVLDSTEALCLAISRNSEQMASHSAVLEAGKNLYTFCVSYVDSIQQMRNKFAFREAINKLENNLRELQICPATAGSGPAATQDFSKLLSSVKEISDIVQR
T2 sequence (P06239 whole entry): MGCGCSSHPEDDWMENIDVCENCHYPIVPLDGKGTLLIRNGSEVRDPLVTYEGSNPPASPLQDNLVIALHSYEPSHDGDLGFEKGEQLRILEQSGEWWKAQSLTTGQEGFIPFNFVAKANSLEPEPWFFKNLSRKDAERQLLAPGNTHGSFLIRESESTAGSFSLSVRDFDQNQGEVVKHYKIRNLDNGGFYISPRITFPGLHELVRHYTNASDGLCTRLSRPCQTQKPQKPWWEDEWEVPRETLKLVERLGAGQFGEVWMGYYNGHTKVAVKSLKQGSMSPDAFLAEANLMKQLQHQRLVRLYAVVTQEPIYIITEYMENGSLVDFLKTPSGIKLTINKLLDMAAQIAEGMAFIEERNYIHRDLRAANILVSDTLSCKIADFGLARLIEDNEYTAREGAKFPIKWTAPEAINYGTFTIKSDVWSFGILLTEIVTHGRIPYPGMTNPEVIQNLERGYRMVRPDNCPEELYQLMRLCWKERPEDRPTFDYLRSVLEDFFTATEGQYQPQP

`COc1ccc(/C=C/c2nc(Sc3ccccc3Cl)c3ccccc3n2)cc1` [IS18, 2-[(E)-2–(4-methoxyphenyl)ethenyl]-4–(2-chlorophenylthio)quinazoline]: the inhibition at 0.5 µM in [1] turned out to be 11.7 ± 4.03%; in [2], 66.5 ± 7.49%; in assay [3], 17.3 ± 4.47%; in assay [4], 0%; in assay [10] it was 26.1 ± 6.03%; in assay [11] it was 13.8 ± 1%. Further, the IC50 in [5] was > 25 µM; in assay [6], 11.1 ± 1.37 µM; in assay [7], 12 ± 1.2 µM; in [8] it was 10.3 ± 0.818 µM; in assay [9] it was 10.6 ± 1.38 µM.
With `COc1cccc(Sc2nc(/C=C/c3ccccc3OC)nc3cc(Cl)ccc23)c1` [IS13, 2-[(E)-2–(2-methoxyphenyl)ethenyl]-7-chloro-4–(3-methoxyphenylthio)quinazoline], the inhibition at 0.5 µM in assay [12], in [1], in [2], in [13], in assay [3] and in assay [4] was 0% each time. In addition, the inhibition at 0.5 µM in assay [10] and in [11] was 0% each time. Further, the IC50 in assay [5], in assay [6], in assay [8], in [9], in [14] and in assay [15] was > 25 µM each time.
For `COc1ccccc1/C=C/c1nc(Sc2ccccc2Cl)c2ccc(Cl)cc2n1` [IS12, 2-[(E)-2–(2-methoxyphenyl)ethenyl]-7-chloro-4–(2-chlorophenylthio)quinazoline], the inhibition at 0.5 µM in assay [12] stood at 0%; in assay [1] it was 0%; in assay [2], 0%; in assay [13], 15.4 ± 4.19%; in [3], 0%; in assay [4] it was 0%. In addition, the inhibition at 0.5 µM in assay [10] and in assay [11] was 0% each time. Besides, the IC50 in assay [5], in [6], in [8], in assay [9], in assay [14] and in assay [15] was > 25 µM in each case.
Consider `COc1ccccc1/C=C/c1nc(Sc2ccccc2C(F)(F)F)c2ccccc2n1` [IS6, 2-[(E)-2–(2-methoxyphenyl)ethenyl]-4-[2-(trifluoromethyl)phenylthio]quinazoline], for which the inhibition at 0.5 µM in assay [1] is 1.18 ± 0.17%; in assay [2], 0%; in assay [3], 26.1 ± 8.39%; in assay [4], 0%; in assay [10] it was 43.8 ± 9.07%; in [11], 1.39 ± 0.41%. In addition, the IC50 in assay [5], in [6], in [7], in assay [8] and in assay [9] was > 25 µM throughout.
Consider `COc1ccccc1/C=C/c1nc(Sc2ccccn2)c2ccc(Cl)cc2n1` [IS14, 2-[(E)-2–(2-methoxyphenyl)ethenyl]-7-chloro-4-(pyrid-2-ylthio)quinazoline], for which the inhibition at 0.5 µM in assay [1] is 7.64 ± 0.7%; in [2] it was 14.8 ± 6.02%; in [3], 16 ± 7.94%; in assay [4] it was 0%; in assay [10], 40.5 ± 9.17%; in assay [11], 0%. In addition, the IC50 in assay [5] was 21.6 ± 2.1 µM; in assay [6], > 25 µM; in assay [7], > 25 µM; in assay [8] it was > 25 µM; in assay [9], > 25 µM.
Turning to `COc1ccccc1/C=C/c1nc(Sc2cccc(Cl)c2)c2ccccc2n1` [IS2, 2-[(E)-2–(2-methoxyphenyl)ethenyl]-4–(3-chlorophenylthio)quinazoline], the inhibition at 0.5 µM in assay [1] was 25.2 ± 3.69%; in assay [2], ~74%; in assay [3], 52%; in assay [4], 62.1 ± 4.45%; in assay [10] it was 58%; in [11], 38.4 ± 8.58%. In addition, the “Inhibition of tyrosine kinase activity [%] Lck” value in assay [2] (0.5 μM) is recorded as 73.92 ± 9.72%. For the same compound, the “Inhibition of tyrosine kinase activity [%] Fyn A” value in assay [3] (0.5 μM) is reported as 52.32 ± 7.04%. The IC50 is 24.8 ± 2.45 µM in [5]; 23.8 ± 5.32 µM in [6]; 25.1 ± 1.44 µM in assay [7]; > 25 µM in [8]; 19.7 ± 1.13 µM in [9]. The “Inhibition of tyrosine kinase activity [%] Src” value in assay [10] (0.5 μM) amounted to 58.56 ± 4.80%.
For the compound `Cc1nc(Nc2ncc(C(=O)Nc3c(C)cccc3Cl)s2)cc(N2CCN(CCO)CC2)n1` [Dasatinib, dasatinib, reference compound], the inhibition at 0.5 µM stood at 92.3 ± 2.55% in [3], 94.2 ± 1.28% in [4] and 97.5 ± 1.49% in [11].
Turning to `COc1ccccc1/C=C/c1nc(Sc2cc(Cl)ccc2Cl)c2ccccc2n1` [IS3, 2-[(E)-2–(2-methoxyphenyl)ethenyl]-4–(2,5-dichlorophenylthio)quinazoline], the inhibition at 0.5 µM in [12] is 0%; in [1], 4.02 ± 3.58%; in [2], 13.4 ± 5.58%; in [13] it was 31.6 ± 2.38%; in [3], 60 ± 2.85%; in assay [4], 35 ± 1.11%. Also, the results for the inhibition at 0.5 µM in assay [10] and in assay [11] were 0% and 26.2 ± 1.55%, respectively. Further, the IC50 in [5], in assay [6], in [9] and in assay [14] was > 25 µM in each case.
For `COc1ccccc1/C=C/c1nc(Sc2ccccc2F)c2ccccc2n1` [IS5, 2-[(E)-2–(2-methoxyphenyl)ethenyl]-4–(2-fluorophenylthio)quinazoline], the inhibition at 0.5 µM in [1] was determined as 18.5 ± 1.59%; in assay [2] it was 37 ± 7.87%; in assay [3], 3.77 ± 1.21%; in [4], 23.1 ± 5.24%; in [10], 28.2 ± 5.41%; in [11], 7.67 ± 3.28%. Besides, the IC50 in assay [5], in assay [6], in assay [7], in assay [8] and in assay [9] was > 25 µM each time.

For the origin of these results see publication PMC10120462, “Styrylquinazoline derivatives as ABL inhibitors selective for different DFG orientations” (Journal of Enzyme Inhibition and Medicinal Chemistry, 2023).
